± gives the expanded uncertainty stated by the source.
Assay: xn = mol fraction of the nth substance listed
Conditions: Liquid; for binary diffusion coefficient: Open capillary; for mass density: Pycnometric method

CCCCCC[N+]1(C)CCCC1.O=S(=O)([N-]S(=O)(=O)C(F)(F)F)C(F)(F)F + O=C=O
binary diffusion coefficient (298.15 K, 100 kPa, x2 = 0.2): 1.6e-10 m2/s | binary diffusion coefficient (298.15 K, 1000 kPa, x2 = 0.2): 2.4e-10 m2/s | mass density (298.15 K, 1004 kPa, x2 = 0.236): 1360 ± 9 kg/m3 | binary diffusion coefficient (298.15 K, 2000 kPa, x2 = 0.2): 4e-10 m2/s | mass density (298.15 K, 2030 kPa, x2 = 0.403): 1354 ± 8 kg/m3 | mass density (298.15 K, 2493 kPa, x2 = 0.484): 1343 ± 6 kg/m3 | mass density (298.15 K, 3003 kPa, x2 = 0.531): 1345 ± 6 kg/m3 | mass density (298.15 K, 3496 kPa, x2 = 0.577): 1336 ± 8 kg/m3 | mass density (298.15 K, 3999 kPa, x2 = 0.614): 1324 ± 8 kg/m3 | mass density (298.15 K, 4496 kPa, x2 = 0.653): 1308 ± 8 kg/m3 | mass density (298.15 K, 4998 kPa, x2 = 0.683): 1299 ± 8 kg/m3 | mass density (298.15 K, 5521 kPa, x2 = 0.716): 1294 ± 10 kg/m3 | mass density (298.15 K, 5995 kPa, x2 = 0.738): 1281 ± 12 kg/m3 | mass density (298.15 K, 6387 kPa, x2 = 0.751): 1263 ± 22 kg/m3 | mass density (318.15 K, 1005 kPa, x2 = 0.179): 1346 ± 7 kg/m3 | mass density (318.15 K, 2021 kPa, x2 = 0.315): 1332 ± 7 kg/m3 | mass density (318.15 K, 2513 kPa, x2 = 0.366): 1315 ± 6 kg/m3 | mass density (318.15 K, 2996 kPa, x2 = 0.416): 1323 ± 6 kg/m3 | mass density (318.15 K, 4039 kPa, x2 = 0.515): 1311 ± 8 kg/m3 | mass density (318.15 K, 6032 kPa, x2 = 0.632): 1301 ± 12 kg/m3 | mass density (318.15 K, 7998 kPa, x2 = 0.72): 1291 ± 20 kg/m3 | mass density (318.15 K, 9884 kPa, x2 = 0.783): 1345 ± 44 kg/m3 | binary diffusion coefficient (318.2 K, 100 kPa, x2 = 0.15): 2.3e-10 m2/s | binary diffusion coefficient (318.2 K, 1000 kPa, x2 = 0.15): 3.8e-10 m2/s | binary diffusion coefficient (318.2 K, 1800 kPa, x2 = 0.15): 3.8e-10 m2/s | mass density (338.15 K, 1001 kPa, x2 = 0.118): 1307 ± 7 kg/m3 | mass density (338.15 K, 2028 kPa, x2 = 0.264): 1315 ± 7 kg/m3 | mass density (338.15 K, 2537 kPa, x2 = 0.293): 1311 ± 7 kg/m3 | mass density (338.15 K, 3030 kPa, x2 = 0.346): 1310 ± 6 kg/m3 | mass density (338.15 K, 4022 kPa, x2 = 0.443): 1313 ± 6 kg/m3 | mass density (338.15 K, 5027 kPa, x2 = 0.508): 1311 ± 8 kg/m3 | mass density (338.15 K, 6014 kPa, x2 = 0.561): 1307 ± 8 kg/m3 | mass density (338.15 K, 7501 kPa, x2 = 0.637): 1310 ± 8 kg/m3 | mass density (338.15 K, 10006 kPa, x2 = 0.706): 1319 ± 16 kg/m3 | mass density (338.15 K, 12478 kPa, x2 = 0.752): 1325 ± 18 kg/m3 | mass density (338.15 K, 14944 kPa, x2 = 0.771): 1341 ± 12 kg/m3

CCCC[N+]1(C)CCCC1.O=S(=O)([N-]S(=O)(=O)C(F)(F)F)C(F)(F)F + O=C=O
binary diffusion coefficient (298.15 K, 100 kPa, x2 = 0.2): 1.3e-10 m2/s | mass density (298.15 K, 996 kPa, x2 = 0.199): 1385 ± 7 kg/m3 | binary diffusion coefficient (298.15 K, 1000 kPa, x2 = 0.2): 1.6e-10 m2/s | mass density (298.15 K, 1997 kPa, x2 = 0.379): 1377 ± 6 kg/m3 | binary diffusion coefficient (298.15 K, 2000 kPa, x2 = 0.2): 3e-10 m2/s | mass density (298.15 K, 2502 kPa, x2 = 0.449): 1371 ± 6 kg/m3 | mass density (298.15 K, 3031 kPa, x2 = 0.51): 1361 ± 6 kg/m3 | mass density (298.15 K, 3511 kPa, x2 = 0.559): 1351 ± 6 kg/m3 | mass density (298.15 K, 4013 kPa, x2 = 0.602): 1348 ± 6 kg/m3 | mass density (298.15 K, 4504 kPa, x2 = 0.638): 1345 ± 6 kg/m3 | mass density (298.15 K, 5002 kPa, x2 = 0.674): 1339 ± 6 kg/m3 | mass density (298.15 K, 5512 kPa, x2 = 0.702): 1336 ± 8 kg/m3 | mass density (298.15 K, 6040 kPa, x2 = 0.728): 1326 ± 10 kg/m3 | mass density (298.15 K, 6378 kPa, x2 = 0.745): 1330 ± 18 kg/m3 | mass density (318.15 K, 1005 kPa, x2 = 0.156): 1387 ± 7 kg/m3 | mass density (318.15 K, 2046 kPa, x2 = 0.311): 1391 ± 7 kg/m3 | mass density (318.15 K, 3019 kPa, x2 = 0.436): 1389 ± 6 kg/m3 | mass density (318.15 K, 4000 kPa, x2 = 0.528): 1397 ± 8 kg/m3 | mass density (318.15 K, 6033 kPa, x2 = 0.638): 1380 ± 12 kg/m3 | mass density (318.15 K, 8002 kPa, x2 = 0.714): 1378 ± 18 kg/m3 | binary diffusion coefficient (318.2 K, 100 kPa, x2 = 0.15): 2.2e-10 m2/s | binary diffusion coefficient (318.2 K, 1000 kPa, x2 = 0.15): 2.9e-10 m2/s | binary diffusion coefficient (318.2 K, 2000 kPa, x2 = 0.15): 3.3e-10 m2/s | mass density (338.15 K, 1019 kPa, x2 = 0.123): 1368 ± 7 kg/m3 | mass density (338.15 K, 2011 kPa, x2 = 0.23): 1358 ± 28 kg/m3 | mass density (338.15 K, 2520 kPa, x2 = 0.301): 1369 ± 6 kg/m3 | mass density (338.15 K, 3004 kPa, x2 = 0.345): 1369 ± 6 kg/m3 | mass density (338.15 K, 4000 kPa, x2 = 0.435): 1371 ± 6 kg/m3 | mass density (338.15 K, 5007 kPa, x2 = 0.495): 1380 ± 8 kg/m3 | mass density (338.15 K, 6020 kPa, x2 = 0.537): 1357 ± 8 kg/m3 | mass density (338.15 K, 7504 kPa, x2 = 0.606): 1348 ± 8 kg/m3 | mass density (338.15 K, 10012 kPa, x2 = 0.682): 1349 ± 16 kg/m3 | mass density (338.15 K, 12486 kPa, x2 = 0.712): 1384 ± 18 kg/m3 | mass density (338.15 K, 14895 kPa, x2 = 0.728): 1387 ± 12 kg/m3

CCC[N+]1(C)CCCC1.O=S(=O)([N-]S(=O)(=O)C(F)(F)F)C(F)(F)F + O=C=O
binary diffusion coefficient (298.15 K, 100 kPa, x2 = 0.2): 1.3e-10 m2/s | binary diffusion coefficient (298.15 K, 1000 kPa, x2 = 0.2): 1.8e-10 m2/s | mass density (298.15 K, 1009 kPa, x2 = 0.236): 1464 ± 11 kg/m3 | binary diffusion coefficient (298.15 K, 2000 kPa, x2 = 0.2): 2.4e-10 m2/s | mass density (298.15 K, 2028 kPa, x2 = 0.389): 1420 ± 17 kg/m3 | mass density (298.15 K, 3030 kPa, x2 = 0.503): 1411 ± 12 kg/m3 | mass density (298.15 K, 3507 kPa, x2 = 0.553): 1408 ± 9 kg/m3 | mass density (298.15 K, 4038 kPa, x2 = 0.598): 1401 ± 6 kg/m3 | mass density (298.15 K, 4517 kPa, x2 = 0.632): 1390 ± 8 kg/m3 | mass density (298.15 K, 5014 kPa, x2 = 0.661): 1386 ± 9 kg/m3 | mass density (298.15 K, 5505 kPa, x2 = 0.688): 1385 ± 15 kg/m3 | mass density (298.15 K, 6003 kPa, x2 = 0.709): 1373 ± 12 kg/m3 | mass density (298.15 K, 6397 kPa, x2 = 0.725): 1363 ± 22 kg/m3 | mass density (318.15 K, 1055 kPa, x2 = 0.185): 1441 ± 7 kg/m3 | mass density (318.15 K, 2223 kPa, x2 = 0.323): 1437 ± 6 kg/m3 | mass density (318.15 K, 4005 kPa, x2 = 0.471): 1407 ± 7 kg/m3 | mass density (318.15 K, 5004 kPa, x2 = 0.528): 1392 ± 7 kg/m3 | mass density (318.15 K, 6004 kPa, x2 = 0.575): 1374 ± 8 kg/m3 | mass density (318.15 K, 7010 kPa, x2 = 0.621): 1356 ± 9 kg/m3 | mass density (318.15 K, 8010 kPa, x2 = 0.664): 1366 ± 10 kg/m3 | mass density (318.15 K, 16527 kPa, x2 = 0.731): 1385 ± 8 kg/m3 | mass density (318.15 K, 19966 kPa, x2 = 0.751): 1406 ± 7 kg/m3 | binary diffusion coefficient (318.2 K, 100 kPa, x2 = 0.15): 2.7e-10 m2/s | binary diffusion coefficient (318.2 K, 1000 kPa, x2 = 0.15): 3e-10 m2/s | binary diffusion coefficient (318.2 K, 2000 kPa, x2 = 0.15): 3.7e-10 m2/s | mass density (338.15 K, 1009 kPa, x2 = 0.065): 1400 ± 10 kg/m3 | mass density (338.15 K, 2002 kPa, x2 = 0.198): 1405 ± 9 kg/m3 | mass density (338.15 K, 2508 kPa, x2 = 0.249): 1393 ± 9 kg/m3 | mass density (338.15 K, 3007 kPa, x2 = 0.328): 1408 ± 12 kg/m3 | mass density (338.15 K, 4008 kPa, x2 = 0.413): 1404 ± 14 kg/m3 | mass density (338.15 K, 4999 kPa, x2 = 0.474): 1427 ± 13 kg/m3 | mass density (338.15 K, 6006 kPa, x2 = 0.536): 1430 ± 6 kg/m3 | mass density (338.15 K, 7503 kPa, x2 = 0.612): 1435 ± 10 kg/m3

Reference: the NIST ThermoML archive (doi:10.1021/acs.jced.8b01236)
